Patent US6765010B2, “Compositions and methods for enhancing analgesic potency of tramadol and attenuating its adverse side effects” (Pain Therapeutics, Inc., priority 1999, dated 2004)
“Also recorded” adds a separate entry of the source. Like-named read-outs stand apart in the source and are kept apart here.

Columns and labels:
[1] = test system: excitatory opioid receptors on DRG neurons; format: cell-based, mouse
[2] = test system: DRG neurons; format: cell-based, mouse
[3] = test system: mice; assay: Warm-water (55° C.) tail-flick assay, antinociception; format: in vivo, mouse
[4] = test system: mice; assay: Acute physical dependence assay: naloxone-precipitated withdrawal jumping; format: in vivo, mouse; details: for effect on naloxone-precipitated withdrawal jumping: co-treatment 4 hours with 100 mg/kg morphine s.c. plus low dose antagonist
[5] = test system: human volunteers; details: yohimbine 0.1 mg/kg IV; 100 mg tramadol orally; cited from earlier work
[6] = test system: dorsal root ganglion (DRG) neurons; format: cell-based, mouse
[7] = test system: mice; details: morphine 20-50 mg/kg s.c. twice daily 4 days alone or + naltrexone 10 μg/kg s.c.; n=30
[8] = test system: mice; details: at 30 minutes; n=10

## O=C1CC[C@@]2(O)[C@H]3Cc4ccc(O)c5c4[C@@]2(CCN3CC2CC2)[C@H]1O5 [naltrexone]
[1]
  blockade of excitatory APD prolongation by bimodally-acting opioid agonists: remarkably effective in blocking excitatory APD-prolonging effects
  effect on morphine's APD effects: blocks both inhibitory as well as excitatory effects of morphine
  selective antagonism of excitatory APD-prolonging effects at excitatory opioid receptors: act selectively as antagonists; also recorded: selectively blocked
[2]
  excitatory APD prolongation (supersensitivity) after chronic co-treatment: did not evoke the usual excitatory APD prolongation
  tolerance to inhibitory effects of opioids after chronic co-treatment: no evidence of tolerance
[3]; 10 ng/kg i.p.
  analgesic effects of antagonist alone: did not elicit analgesic effects
[3]; 0.1 μg/kg
  analgesic effects of antagonist alone: did not elicit analgesic effects
[4]
  effect on naloxone-precipitated withdrawal jumping: attenuates naloxone-precipitated withdrawal-jumping

## COC(=O)[C@@H]1[C@H]2C[C@H]3c4[nH]c5ccccc5c4CCN3C[C@@H]2CC[C@@H]1O [yohimbine]
[5]
  reduction of tramadol-induced analgesia: ≥ 89%

## C=C1CC[C@@]2(O)[C@H]3Cc4ccc(O)c5c4[C@@]2(CCN3CC2CC2)[C@H]1O5 [nalmefene]
[3]; 1 ng/kg nalmefene
  enhancement of morphine antinociceptive potency compared with naltrexone: as effective as 10 ng/kg naltrexone
[3]; 3 mg/kg morphine + 1-100 ng/kg nalmefene i.p., 10 mice
  effect on morphine's antinociceptive potency: enhances morphine's antinociceptive potency
[4]; 1 μg/kg nalmefene, n=10
  attenuation of morphine dependence liability compared with naltrexone: may even be more effective than naltrexone
[4]
  effect on naloxone-precipitated withdrawal jumping: attenuates naloxone-precipitated withdrawal-jumping

## CN1CC[C@]23c4c5ccc(O)c4O[C@H]2[C@@H](O)C=C[C@H]3[C@H]1C5 [morphine]
[6]
  APD during application: prolonged
  alteration of the APD of DRG neurons: prolong the APD
[3]; 100 mg/kg morphine alone or + 10 μg/kg naltrexone, cutoff value
  peak tail-flick latencies: 10 s
[4]; 100 mg/kg morphine s.c. alone or + naltrexone 10 μg/kg, naloxone 10 mg/kg i.p. 3-4 h later, n=30
  mice showing naloxone-precipitated jumping: About 67%
[7]
  mice showing naloxone-precipitated jumping: About 60%
[8]
  antinociception after acute 1 mg/kg morphine, 1 day after drug withdrawal: 3%±2%
